Measured values as given in publication PMC6510822, “Identification of anticancer OATP2B1 substrates by an in vitro triple-fluorescence-based cytotoxicity screen” (Archives of Toxicology, 2019).
Where two headings read alike, the source gives them in different places. Marks after values point to notes of the source that are not given here.

Key:
[1] = system: A431-G2 cells (ABCG2 expressing); assay: Fluorescence-based cytotoxicity assay, ABCG2-expressing A431-G2 mOr; settings: triple co-culture, result in words
Experimental: (§2) After the transduction, cell lines were tested by flow cytometry and were sorted based on transporter expression/function, and in the case of the OATP2B1-expressing cell line, on CD4 protein expression. Parental, SLCO2B1, ABCG2 and ABCB1 overexpressing cell lines were transduced with the fluorescent protein expressing lentiviral supernatants produced with pRRL-EF1-mCherry, -mOrange or -eGFP expression plasmid in a second round of transduction. Mes-Sa/Dx5-eGFP cells were repeatedly cultured in 500 nM doxorubicin to ensure homogenous expression of Pgp. […] Functional expression of ABCB1 and ABCG2 was regularly checked with cytotoxicity assays using mitoxantrone in the absence or presence of tariquidar.
(§3) In the primary screening, IC50 was estimated by the intercept of the linear regression fitted on nearest values. In the confirmatory screening, IC50 values were obtained by sigmoidal curve fitting using the GraphPad Prism software. […] The Resistance Ratio (RR) was calculated by dividing the IC50 values measured against the multidrug resistant, transporter-expressing derivative by the cytotoxicity measured in the parental cell line; the Selectivity Ratio (SR) is the inverse of RR.

Mes-Sa cells [2] = assay: Fluorescence-based cytotoxicity assay, parental Mes-Sa mCh; settings: fluorescent protein based assay
Experimental: (§4) All cell lines were cultured at 37 °C, 5% CO2, in Dulbecco’s Modified Eagle’s Medium (DMEM, SigmaAldrich, 52100047), supplemented with 10% FBS, 2 mM L-glutamine and 100 units/mL penicillin and 100 µg/mL streptomycin (ThermoFisher).
(§5) In the primary screening, IC50 was estimated by the intercept of the linear regression fitted on nearest values. In the confirmatory screening, IC50 values were obtained by sigmoidal curve fitting using the GraphPad Prism software. […] The Resistance Ratio (RR) was calculated by dividing the IC50 values measured against the multidrug resistant, transporter-expressing derivative by the cytotoxicity measured in the parental cell line; the Selectivity Ratio (SR) is the inverse of RR. Differences were considered to be biologically relevant at RR > 3 or SR > 3.

A431B1 cells = assay: PrestoBlue-based cytotoxicity assay, A431B1; type: cell-based, human; settings: PrestoBlue viability assay
Experimental: (§1) All experiments were performed using a robotic pipetting workstation (Hamilton Robotics STAR Let). Cells were seeded at a final cell density of 1875 cells per well in 384-well plates in the triple co-culture (625 cells from each lines) and at 2500 cells per well in the A431 control and A431-2B1 co-culture (1250 cells from both) systems. Co-cultured cells were incubated for 24 h at 37 °C and 5% CO2 under humidified atmosphere prior to the addition of drugs. […] Data were exported to a custom-made program for determining growth inhibition curves for each cell line. In confirmatory screens, compounds were tested with the same method in a nine-point dose response format. For validation, compounds were confirmed in cytotoxicity assays using the PrestoBlue cell viability reagent (ThermoFisher), according to the manufacturer’s instructions.

Mes-Sa cells [3] = assay: PrestoBlue-based cytotoxicity assay, Mes-Sa; type: cell-based, human; settings: PrestoBlue viability assay
Experimental: as §1

Mes-Sa/Dx5 cells [4] = assay: PrestoBlue-based cytotoxicity assay, Mes-Sa/DX5; type: cell-based, human; settings: PrestoBlue viability assay
Experimental: as §1

[5] = system: Mes-Sa-B1 cells (Pgp overexpressing); assay: Fluorescence-based cytotoxicity assay, Mes-Sa-B1 mOr; settings: for IC50: fluorescent protein based assay
Experimental: as §2, §3

Mes-Sa-B1 cells = assay: PrestoBlue-based cytotoxicity assay, Mes-Sa-B1; type: cell-based, human; settings: PrestoBlue viability assay
Experimental: as §1

[6] = system: A431-B1 cells (ABCB1/P-glycoprotein expressing); assay: Fluorescence-based cytotoxicity assay, ABCB1-expressing A431-B1 mCh; settings: for IC50: fluorescent protein based assay
Experimental: as §4, §5

A431 cells [7] = assay: PrestoBlue-based cytotoxicity assay, A431; type: cell-based, human; settings: PrestoBlue viability assay
Experimental: as §1

A431G2 cells = assay: PrestoBlue-based cytotoxicity assay, A431G2; type: cell-based, human; settings: PrestoBlue viability assay
Experimental: as §1

A431 cells [8] = assay: Fluorescence-based cytotoxicity assay, parental A431 eGFP
Experimental: as §2, §3

Mes-Sa/Dx5 cells [9] = assay: Fluorescence-based cytotoxicity assay, Mes-Sa/Dx5 eGFP; settings: for IC50: fluorescent protein based assay
Experimental: as §2, §3

OATP2B1 [10] = assay: Fluorescence-based cytotoxicity assay, OATP2B1-expressing A431-2B1 mCh; settings: human
Experimental: as §2, §3

[11] = system: A431-2B1 cells (OATP2B1 expressing); assay: as above
Experimental: as §2, §3

OATP2B1 [12] = target: T1, OATP2B1 (Homo sapiens, UniProt O94956); assay: Inhibition of OATP2B1-mediated Cascade Blue uptake (microplate-based uptake assay, A431-2B1 cells)
T1 sequence (O94956 1-709): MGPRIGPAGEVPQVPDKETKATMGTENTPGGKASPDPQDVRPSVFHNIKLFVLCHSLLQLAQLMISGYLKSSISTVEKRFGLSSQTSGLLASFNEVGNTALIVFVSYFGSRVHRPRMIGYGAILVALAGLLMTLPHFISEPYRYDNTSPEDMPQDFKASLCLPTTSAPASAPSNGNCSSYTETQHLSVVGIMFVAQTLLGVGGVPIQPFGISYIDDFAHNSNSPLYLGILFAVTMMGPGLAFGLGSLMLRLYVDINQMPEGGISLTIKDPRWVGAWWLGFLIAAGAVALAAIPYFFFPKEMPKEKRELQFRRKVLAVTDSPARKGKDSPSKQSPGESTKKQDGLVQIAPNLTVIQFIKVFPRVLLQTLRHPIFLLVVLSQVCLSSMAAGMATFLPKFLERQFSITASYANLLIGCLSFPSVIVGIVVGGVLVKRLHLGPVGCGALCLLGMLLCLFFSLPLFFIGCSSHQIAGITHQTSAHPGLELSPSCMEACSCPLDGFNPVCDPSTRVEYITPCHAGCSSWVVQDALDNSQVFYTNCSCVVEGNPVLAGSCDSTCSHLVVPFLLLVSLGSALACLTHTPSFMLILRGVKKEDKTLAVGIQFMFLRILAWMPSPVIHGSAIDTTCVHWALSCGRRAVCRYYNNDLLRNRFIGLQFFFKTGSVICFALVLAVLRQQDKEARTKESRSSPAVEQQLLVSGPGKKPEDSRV
Experimental: OATP-expressing A431 cells were seeded (7 × 10^4 cells in 200 µl final volume/well) onto 96-well plates and cultured for 16–24 h at 37 °C, 5% CO2. After reaching confluence, the supernatant was removed and the cells were washed three-times with 200 µl of phosphate-buffered saline (PBS). The cells were preincubated in the presence of the compounds for 5 min at 37 °C. The amount of solvent was kept below 0.5% throughout the study to avoid interference with the fluorescence of the dyes. The reaction was started with the addition of 50 µl Cascade Blue fluorescent dye (10 µM final concentration in a final volume of 100 µl) and the plate was incubated at 37 °C for 30 min (Patik et al. [2018]). The reaction was stopped by the addition of 200 µl ice-cold PBS. The supernatant was rapidly removed, and the cells were washed three-times with 200 µl ice-cold PBS. Finally, 200 µl PBS was added to the cells and fluorescence was measured at room temperature using an EnSpire fluorescent plate reader (Perkin Elmer) at wavelengths 401ex/419em nm.

OATP2B1 [13] = assay: in vitro; settings: human
Experimental: as §2, §3

Mes-Sa/Dx5 cells [14] = system: Mes-Sa/Dx5 cells
Experimental: as §2, §3

[15] = A431-2B1 mCherry cells (OATP2B1-expressing), monoculture
[16] = IC50 A431 eGFP / IC50 A4312B1 mCh, co-culture
[17] = IC50 A431 eGFP / IC50 A4312B1 mCh
[18] = primary screen, co-culture, Fig. 4 inset
[19] = Homo sapiens, A-431, read-out: IC50 (µM) A431 eGFP, co-culture
[20] = Homo sapiens, A-431, read-out: IC50 (µM) A431 eGFP, monoculture

`Oc1c(CN2CCCCC2)ccc2cccnc12` [NSC57969] was tested, and the “Effect of ABCG2 expression on toxicity (A431-G2 vs parental A431)” value [1] was “did not sensitize”, the IC50 (Mes-Sa cells [2]; read-out: IC50 Mes-Sa, monoculture, monoculture) was 5080 nM and the IC50 (Mes-Sa cells [2]; read-out: IC50 Mes-Sa, triple co-culture, triple co-culture) was 3210 nM. The IC50 (A431B1 cells) was 974 nM, the IC50 (Mes-Sa cells [3]) was 4890 nM and the IC50 (Mes-Sa/Dx5 cells [4]) was 815 nM. It also gave an IC50 ([5]; read-out: IC50 Mes-Sa-B1, monoculture, monoculture) of 2810 nM, an IC50 ([5]; read-out: IC50 Mes-Sa-B1, triple co-culture, triple co-culture) of 1800 nM and an IC50 (Mes-Sa-B1 cells) of 1480 nM. For the same compound, the IC50 ([6]; read-out: IC50 A431B1, monoculture, monoculture) was 774 nM, the IC50 ([6]; read-out: IC50 A431B1, triple co-culture, triple co-culture) was 2780 nM and the IC50 (A431 cells [7]) was 4930 nM. For the same compound, the IC50 (A431G2 cells) was 5760 nM, the IC50 (A431 cells [8]; read-out: IC50 A431, monoculture, fluorescent protein based assay, monoculture) was 5.13 µM and the IC50 (A431 cells [8]; read-out: IC50 A431, triple co-culture, fluorescent protein based assay, triple co-culture) was 7.09 µM. It also gave an IC50 (Mes-Sa/Dx5 cells [9]; read-out: IC50 Mes-Sa/DX5, monoculture, monoculture) of 951 nM and an IC50 (Mes-Sa/Dx5 cells [9]; read-out: IC50 Mes-Sa/DX5, triple co-culture, triple co-culture) of 177 nM.

In the case of `CN(Cc1cnc2nc(N)nc(N)c2n1)c1ccc(C(=O)N[C@@H](CCC(=O)O)C(=O)O)cc1` [NSC-740, Methotrexate], the IC50 at […] (OATP2B1 [10]) is reported as 30 nM, the IC50 at […] (OATP2B1 [10]; [15]) is reported as 120 nM and the “SR, co-culture” value [11, 16] is reported as 11.78^**. The “SR, monoculture” value [11, 17] was 3.59^**, the “SR (A431-2B1 vs parental A431), screening of DTP Oncology Set IV” value [11, 18] was 9.00 and the IC50 (OATP2B1 [12]) was 265000 ± 31400 nM. For the same compound, the IC50 (A431 cells [8]; [19]) was 0.38 µM and the IC50 (A431 cells [8]; [20]) was 0.43 µM.

For `S=P(N1CC1)(N1CC1)N1CC1` [NSC-6396, Thioplex], the “SR (A431-2B1 vs parental A431), screening of DTP Oncology Set IV” value [11] was 3.48, the “SR, co-culture” value [11] was 3.08^* and the IC50 (OATP2B1 [12]) was 574000 ± 283000 nM. For the same compound, the IC50 (OATP2B1 [13]) was 18700 nM, the IC50 (A431 cells [8]; [19]) was 57.6 µM and the “SR (Mes-Sa/DX5)” value (Mes-Sa/Dx5 cells [9]) was 12.56.

For `CO[C@@]12[C@H](COC(N)=O)C3=C(C(=O)C(C)=C(N)C3=O)N1C[C@@H]1N[C@@H]12` [NSC-26980, Mitomycin], the “SR (Mes-Sa/DX5)” value (Mes-Sa/Dx5 cells [14]) was 4.407 and the “SR (Mes-Sa-B1)” value [5] was 0.56.

For `COc1cc([C@@H]2c3cc4c(cc3[C@@H](O[C@@H]3O[C@@H]5CO[C@@H](c6cccs6)O[C@H]5[C@H](O)[C@H]3O)[C@H]3COC(=O)[C@H]23)OCO4)cc(OC)c1O` [NSC-122819, Teniposide], the IC50 at […] (OATP2B1 [10]) was 70 nM, the IC50 at […] (OATP2B1 [10]; [15]) was 140 nM and the “SR, co-culture” value [11, 16] was 6.02^*. The “SR, monoculture” value [11, 17] was 6.1^**, the “SR (A431-2B1 vs parental A431), screening of DTP Oncology Set IV” value [11, 18] was 4.78 and the “RR (Mes-Sa-B1)” value ([5]; resistance ratio = IC50 Mes-Sa-B1 / IC50 parental Mes-Sa, triple co-culture screen) was 41.88. For the same compound, the IC50 (OATP2B1 [12]) was 4590 ± 400 nM, the “RR (A431B1)” value ([6]; resistance ratio = IC50 A431B1 / IC50 parental A431, triple co-culture screen) was 5.43 and the IC50 (A431 cells [8]; [19]) was 0.45 µM. For the same compound, the IC50 (A431 cells [8]; [20]) was 0.83 µM and the “RR (Dx5)” value (Mes-Sa/Dx5 cells [9]; resistance ratio = IC50 Mes-Sa/Dx5 / IC50 parental Mes-Sa, triple co-culture screen) was 75.25.
